Experiment [1] concerns the target T1, Beta-secretase 1 (Homo sapiens, UniProt P56817). Kind of experiment: Inhibition of human recombinant BACE1. The note with it: concentration not given here. More on the design: concentration or dose not given beside the values.
In experiment [2] the target is T1, Beta-secretase 1. In words: Inhibition of human recombinant BACE1 at 100 uM.

As usually defined, the inhibition is how much of the control response was suppressed. As a reminder, the IC50 is the point on the concentration scale where inhibition reaches its midpoint.

T1 sequence (P56817 whole entry): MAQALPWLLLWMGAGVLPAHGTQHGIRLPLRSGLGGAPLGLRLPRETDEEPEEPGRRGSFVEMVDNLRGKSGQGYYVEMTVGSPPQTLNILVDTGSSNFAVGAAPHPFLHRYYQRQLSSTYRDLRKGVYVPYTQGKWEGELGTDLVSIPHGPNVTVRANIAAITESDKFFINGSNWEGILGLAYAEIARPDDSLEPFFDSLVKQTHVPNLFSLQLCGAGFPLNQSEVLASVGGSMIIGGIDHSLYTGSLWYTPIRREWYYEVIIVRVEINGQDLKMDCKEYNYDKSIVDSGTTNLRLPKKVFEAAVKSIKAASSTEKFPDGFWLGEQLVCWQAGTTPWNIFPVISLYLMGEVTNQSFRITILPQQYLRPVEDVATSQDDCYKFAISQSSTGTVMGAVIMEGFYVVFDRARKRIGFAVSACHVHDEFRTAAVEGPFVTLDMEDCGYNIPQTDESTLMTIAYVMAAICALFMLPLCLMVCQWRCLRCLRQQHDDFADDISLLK

With `O=C1Nc2ccccc2/C1=N/NC(=O)c1cc([N+](=O)[O-])ccc1O`, the inhibition on Beta-secretase 1 [1] is 35.2%.

On to `Cc1ccc(NC(=O)CN2C(=O)/C(=N\NC(=O)c3cc([N+](=O)[O-])ccc3O)c3ccccc32)cc1`, for which the inhibition on Beta-secretase 1 [1] was 84.5%. For the same compound, the IC50 at Beta-secretase 1 [2] is 2.4 µM.

Regarding `O=C(CN1C(=O)/C(=N\NC(=O)c2cc([N+](=O)[O-])ccc2O)c2ccccc21)NC1CCCCC1`, the inhibition on Beta-secretase 1 [1] is 92%. For the same compound, the IC50 on Beta-secretase 1 [2] was found to be 4.8 µM.

Turning to `COc1ccc([N+](=O)[O-])cc1C(=O)N/N=C1\C(=O)N(CC(=O)Nc2ccc(C)cc2)c2ccccc21`, the inhibition on Beta-secretase 1 [1] stood at 20.2%.

For `Cc1ccc(NC(=O)CN2C(=O)/C(=N\NC(=O)c3ccccc3O)c3ccccc32)cc1`, the inhibition at Beta-secretase 1 [1] turned out to be 71.1%.

As to `O=C(CN1C(=O)/C(=N\NC(=O)c2cc([N+](=O)[O-])ccc2O)c2ccccc21)Nc1ccc(C(F)(F)F)cc1`, the inhibition at Beta-secretase 1 [1] came to 74.6%.

For the compound `CN1C(=O)/C(=N\NC(=O)c2cc([N+](=O)[O-])ccc2O)c2ccccc21`, the inhibition at Beta-secretase 1 [1] stood at 14.3%.

Consider `Cc1ccc(NC(=O)CN2C(=O)/C(=N\NC(=O)c3cccc([N+](=O)[O-])c3)c3ccccc32)cc1`, for which the inhibition at Beta-secretase 1 [1] was determined as 28.8%.

Source of the values: ChEMBL document CHEMBL1154387, “Discovery of novel non-peptide inhibitors of BACE-1 using virtual high-throughput screening” (Bioorg Med Chem Lett, 2009).
